Results taken from US20240132484A1, “BROAD SPECTRUM ANTIVIRAL COMPOUNDS TARGETING THE SKI COMPLEX” (priority 2020, published 2024).
Values joined by “and” are separate entries in the source; they are usually repeats but may differ in a detail not shown here. Identical values can stand only once. Like-named read-outs stand apart in the source and are kept apart here.

Assays:
[1] = tested on: cells (nuclei count); conditions: for Toxicity Data: Average, Mean: average of Exp 1-3 (SMW454, SMW466, SMW480), n 9; for Relative cell count to DMSO controls, Average 1 μM / Relative cell count to DMSO controls, Average 5 μM / Relative cell count to DMSO controls, Average 10 μM / Relative cell count to DMSO controls, Average 25 μM / Relative cell count to DMSO controls, Average 50 μM: toxicity data, 100=DMSO control; for Relative cell count to DMSO controls, Average (for correlation analysis): average value over the 5 tested concentrations (1 to 50 uM); for Toxicity Data, Average, Mean percentage relative to DMSO control: Average of Exp 1 (SMW491) and Exp 2 (SMW492)
[2] = tested on: SARS2; assay type: cell-based, SARS-CoV-2; conditions: for Percentage Inhibition Average 1 μM / Screening data (Relative infection to DMSO controls) Average 1 μM: SARS2, 1 μM; for Screening data (Relative infection to DMSO controls) Average 1 μM / Screening data (Relative infection to DMSO controls) Average 5 μM / Screening data (Relative infection to DMSO controls) Average 10 μM / Screening data (Relative infection to DMSO controls) Average 25 μM / Screening data (Relative infection to DMSO controls) Average 50 μM / Average (relative infection to DMSO over the 5 tested concentrations): 100=DMSO control; for Percentage Inhibition Average 5 μM / Screening data (Relative infection to DMSO controls) Average 5 μM: SARS2, 5 μM; for Percentage Inhibition Average 10 μM / Screening data (Relative infection to DMSO controls) Average 10 μM: SARS2, 10 μM; for Percentage Inhibition Average 25 μM / Screening data (Relative infection to DMSO controls) Average 25 μM: SARS2, 25 μM; for Percentage Inhibition Average 50 μM / Screening data (Relative infection to DMSO controls) Average 50 μM: SARS2, 50 μM; for Average (relative infection to DMSO over the 5 tested concentrations): SARS2, average over 1 to 50 uM; for Percentage Infection Relative to Appropriate DMSO Control with Avg Background Subtraction: Nunc Celigo plates; for Infection Data, Average, Mean: average of Exp 1-2 (SMW491, SMW492)

Row | SMILES | Relative cell count to DMSO controls, Average 1 μM [1] | Relative cell count to DMSO controls, Average 5 μM [1] | Relative cell count to DMSO controls, Average 10 μM [1] | Relative cell count to DMSO controls, Average 25 μM [1] | Relative cell count to DMSO controls, Average 50 μM [1] | Relative cell count to DMSO controls, Average (for correlation analysis) [1] | Percentage Inhibition Average 1 μM [2] | Screening data (Relative infection to DMSO controls) Average 1 μM [2] | Percentage Inhibition Average 5 μM [2] | Screening data (Relative infection to DMSO controls) Average 5 μM [2] | Percentage Inhibition Average 10 μM [2] | Screening data (Relative infection to DMSO controls) Average 10 μM [2] | Percentage Inhibition Average 25 μM [2] | Screening data (Relative infection to DMSO controls) Average 25 μM [2] | Percentage Inhibition Average 50 μM [2] | Screening data (Relative infection to DMSO controls) Average 50 μM [2] | Average (relative infection to DMSO over the 5 tested concentrations) [2] | also measured
1 | Cc1ccc(CN(CCN(C)C)Cc2ccc(CO)o2)s1 [SILCS13] | 105.73 | 107.19 | 105.25 | 104.32 | 78.61 | 100.22 | 5.30% | 94.70 | 2.13% | 97.87 | −20.89% | 120.89 | −42.17% | 142.17 | 14.36% | 85.64 | 108.25 | Toxicity Data: Average, Mean ([1]; 1 uM): 105.73%; Toxicity Data: Average, Mean ([1]; 5 uM): 107.19%; Toxicity Data: Average, Mean ([1]; 10 uM): 105.25%; Toxicity Data: Average, Mean ([1]; 25 uM): 104.32%; Toxicity Data: Average, Mean ([1]; 50 uM): 78.61%; Percentage Infection Relative to DMSO Control, Average, Mean [2]: 85.64% and 142.17% and 120.89% and 97.87% and 94.70%
2 | CCN(CC)CCN(Cc1ccncc1)C(=O)c1cccs1 [SILCS38] | 111.85 | 110 | 115.05 | 107.71 | 105.21 | 109.96 | 23.75% | 76.25 | 15.22% | 84.78 | 26.94% | 73.06 | 1.37% | 98.63 | 13.51% | 86.49 | 83.84 | Toxicity Data, Average, Mean percentage relative to DMSO control ([1]; n=4, 1 uM): 111.85%; Toxicity Data, Average, Mean percentage relative to DMSO control ([1]; n=4, 5 uM): 110.00%; Toxicity Data, Average, Mean percentage relative to DMSO control ([1]; n=4, 10 uM): 115.05%; Toxicity Data, Average, Mean percentage relative to DMSO control ([1]; n=4, 25 uM): 107.71%; Toxicity Data, Average, Mean percentage relative to DMSO control ([1]; n=4, 50 uM): 105.21%; Percentage Infection Relative to Appropriate DMSO Control with Avg Background Subtraction ([2]; Exp 1 (SMW491), 1 uM): 101.61% and 80.30%; Percentage Infection Relative to Appropriate DMSO Control with Avg Background Subtraction ([2]; Exp 1 (SMW491), 5 uM): 101.51% and 104.07%; Percentage Infection Relative to Appropriate DMSO Control with Avg Background Subtraction ([2]; Exp 1 (SMW491), 10 uM): 91.03% and 87.80%; Percentage Infection Relative to Appropriate DMSO Control with Avg Background Subtraction ([2]; Exp 1 (SMW491), 25 uM): 110.71% and 103.81%; Percentage Infection Relative to Appropriate DMSO Control with Avg Background Subtraction ([2]; Exp 1 (SMW491), 50 uM): 96.25% and 89.03%; Percentage Infection Relative to Appropriate DMSO Control with Avg Background Subtraction ([2]; Exp 2 (SMW492), 1 uM): 74.34% and 48.74%; Percentage Infection Relative to Appropriate DMSO Control with Avg Background Subtraction ([2]; Exp 2 (SMW492), 5 uM): 72.80% and 60.72%; Percentage Infection Relative to Appropriate DMSO Control with Avg Background Subtraction ([2]; Exp 2 (SMW492), 10 uM): 63.76% and 49.65%; Percentage Infection Relative to Appropriate DMSO Control with Avg Background Subtraction ([2]; Exp 2 (SMW492), 50 uM): 90.22% and 70.45%; Infection Data, Average, Mean ([2]; n 4, 1 uM): 76.25%; Infection Data, Average, Mean ([2]; n 4, 5 uM): 84.78%; Infection Data, Average, Mean ([2]; n 4, 10 uM): 73.06%; Infection Data, Average, Mean ([2]; n 4, 25 uM): 98.63%; Infection Data, Average, Mean ([2]; n 4, 50 uM): 86.49%
